Here are results for two molecules from patent US4147797A, “Spiro-furanohydantoin derivatives” (Pfizer Inc., priority 1978, dated 1979).

Each structure is given as a SMILES string.

The subject of assay [1] is sorbitol accumulation in the sciatic nerve of streptozotocinized (i.e., diabetic) rats. Put plainly: inhibition of sorbitol accumulation in the sciatic nerve of streptozotocinized (diabetic) rats. Type of assay: in vivo. To be noted: 25 mg/kg oral at 4, 8 and 24 hours after streptozotocin; sorbitol measured 27 hours after induction of diabetes; compared to untreated animals. The procedure: (§1) The activity of the compounds of the present invention as agents for the control of chronic diabetic complications may be determined by a number of standard biological or pharmacological tests. Suitable tests include (1) measuring their ability to inhibit the enzyme activity of isolated aldose reductase and (2) measuring their ability to reduce or inhibit sorbitol accumulation in the sciatic nerve of acutely streptozotocinized (i.e., diabetic) rats.
The compounds of Examples 1 and 2 were tested for their ability to reduce or inhibit sorbitol accumulation in the sciatic nerve of streptozotocinized (i.e., diabetic) rats by the procedure essentially described in U.S. Pat. No. 3,821,383. In the present study, the amount of sorbitol accumulation in the sciatic nerves was measured 27 hours after induction of diabetes. The compounds were administered orally at the dose levels indicated at 4, 8 and 24 hours following the administration of streptozotocin. The results obtained in this manner are presented as the percent inhibition (%) obtained at a 25 mg/kg dose compared to the untreated animal standard (i.e., the untreated animal where sorbitol levels normally rise from approximately 50-100 mM/g. tissue to as high as 400 mM/g. tissue in the 27-hour test period): […]

The target of the next assay is T1, aldose reductase (Bos taurus, UniProt P16116).
T1 construct: partially purified aldose reductase enzyme obtained from calf lens; from tissue; host or cells: calf lens
In words: inhibition of aldose reductase enzyme activity (partially purified enzyme from calf lens). In kind it is biochemical. To be noted: read-out: 50% Inhibitory Concentration.
Source text: as §1, with “rats. […] Pat. No. 3,821,383 and based on the procedure on Hayman et. al., Journal of Biological Chemistry, 240, 877 (1965). The substrate employed was partially purified aldose reductase enzyme obtained from calf lens.” for “rats.”

Take `O=C1NC(=O)C2(CCCc3occc32)N1` (stereo not shown) [Example 1, Spiro[cyclohexa(b)furan-4,4'-imidazolidine]-2',5'-dione]: in assay [1], the “Percent Inhibition at 25 mg/kg” value is recorded as 46%. In addition, at aldose reductase, the IC50 was 100 µM.

Regarding `Cc1cc2c(o1)CCCC21NC(=O)NC1=O` (stereo not shown) [Example 2, 2-methyl-spiro[cyclohexa(b)furan-4,4'-imidazolidine]-2',5'-dione], the “Percent Inhibition at 25 mg/kg” value in assay [1] stood at 2%. Further, at aldose reductase, the IC50 was determined as 100 µM.
